Test results reported in patent publication US6262036A, “Method for inhibiting RNA translation using chimeric oligonucleoside compounds” (priority 2000, dated 2001).
[mp] = methylphosphonate linkage

Tests used:
[1] = tested on: complementary synthetic RNA targets; assay: Binding stability of backbone modified (CT)7A oligomers to RNA (Example 34)
[2] = tested on: complementary RNA targets; assay: Tm of Rp-enriched versus racemic methylphosphonate oligomers with RNA (Example 33); format: binding; settings: 2.4 μM total strand concentration, pH 7.2, 100 mM sodium chloride
[3] = tested on: complementary synthetic RNA target; assay: Hybridization of chirally enriched and non-chiral oligomers to RNA targets (Example 32); format: binding; settings: 1:1 with RNA, midpoint of sigmoidal transition at 260 nm
Description: Chirally enriched all-pyrimidine (C*T)7 A and all-purine (A*G)7 T MP-oligomers were prepared using either Rp - or Sp -dimeric units. Control oligomers were also prepared using the individual monomeric units. The asterisks indicate the positions of defined chirality.
Each oligomer was annealed to a complementary synthetic RNA target and then monitored by absorbance at 260 nm as a function of temperature. Sigmoidal transitions were observed corresponding to thermal denaturation of the hybridization complexes. The Tm values were determined at the midpoint of each sigmoidal transition. […] Thus, we anticipated that the data for each chirally enriched series would be applicable to double-stranded and triple-stranded MP/RNA helices, respectively.

pG1036 (wild-type CAT) = assay: Inhibition of CAT expression, non-splicing control pG1036 (wild-type CAT), in COS-7 cells; format: cell-based, African Green Monkey; settings: 1.0 μM oligomer; ± std error; normalized to protein and luciferase
Description: (§1) COS-7 cells were transiently transfected with plasmids encoding either a target reporter gene or a control non-target reporter gene. These cells were then treated with various chimeric antisense or control oligomers and then assayed for the expression of the reporter genes.
pG1036: Wild-type CAT, inserted into a pRc/CMV vector
COS 7 cells were plated at 1.5×10^5 cells/well in a 12 well plate format on the day before transfections began. All cultures were maintained at 37° C. On the next day, the transfection mixes were prepared. […] These quantities gave a 6.9 or 4.5 or 2.0 to 1 cationic lipid to oligomer plus DNA ratio, respectively, in one milliliter total. pGL2 and pSVβ served as transfection and oligomer specificity controls. […]
(§2) The cell lysates were then assayed for CAT, and luciferase or […] activity, and the total protein concentration was determined as described below. […]
(§3) […] of reaction mixture was then added to each tube, which was then incubated for, typically, approximately 1 hour in a 37° C. oven. […] The sample was then counted in a Packard scintillation counter.
(§4) This assay was performed generally as follows according to standard procedures. 20 μof lysate was combined with 100 μl of luciferase assay reagent (Promega) and counted in a scintillation counter (Packard) within 20 seconds (as recommended by Promega). […]

pG1035 (SplicerCAT) = assay: Inhibition of CAT expression, splicing target pG1035 (SplicerCAT), in COS-7 cells; format: cell-based, African Green Monkey; settings: 1.0 μM oligomer; ± std error; normalized to protein and luciferase; chimeric oligomers also normalized to pG1036
Description: as §1
pG1035: Splicer CAT, inserted into a pRc/CMV vector
COS 7 cells were plated at 1.5×10^5 cells/well in a 12 well plate format on the day before transfections began. All cultures were maintained at 37° C. On the next day, the transfection mixes were prepared. For each well of a 12 well plate, 1.0 μM oligomer was combined with 1 μg pGL2 or pSVβ+1 μg of the target CAT plasmid in 0.5 ml of Optimem (Gibco/BRL) and 18.75 μg Transfectam (for chimeric oligomers, Promega) or Lipofectamine (for all PS oligomers, Promega) also in 0.5 ml of Optimem. These quantities gave a 6.9 or 4.5 or 2.0 to 1 cationic lipid to oligomer plus DNA ratio, respectively, in one milliliter total. pGL2 and pSVβ served as transfection and oligomer specificity controls. […]
as §2, §3, §4
Six μl of lysate per well was added, followed by 300 μl Coomassie Protein Assay Reagent (Pierce) per well. The individual sample plates were then read at A570 on a microplate reader (Molecular Devices). […]
Oligomers were transfected into COS-7 cells and lysates were made and assayed as described previously. […] N.D.=not determined. […]

For “2288-1: 5'-CT-CT-CT-CT-CT-CT-CT-A-3', racemic all-MP (CTCTCTCTCTCTCTA; all [mp], sugars by position and methylation of C not given here) [Oligomer 2288-1]”, the TM ([1]; 2.4 μM total strand concentration, pH 7.2, 100 mM sodium chloride) was 34.0 °C, the “K (37° C.) (binding constant KA)” value ([1]; 37° C., two-state model fit of thermal dissociation data) was 8.3 × 10^5 and the Tm [2] was 34.4 °C. For the same substance, the “Tm (1:1, RNA)” value [3] was 35.1 °C.

“XV-5: 24mer, all phosphorothioate: 5' cac tca cct tta ggg aaa tag gcc 3' (CACTCACCTTTAGGGAAATAGGCC; all phosphorothioate, sugars by position and methylation of C not given here)” was tested, and the “percent inhibition of CAT expression, pG1036 = non-splicing” value (pG1036 (wild-type CAT)) was 35 ± 1% and the “percent inhibition of CAT expression, pG1035 = splicing” value (pG1035 (SplicerCAT)) was 32 ± 1%.

“XV-6: 24mer, all phosphorothioate: 5' cac tca atc aat gac tag tct gca 3' (CACTCAATCAATGACTAGTCTGCA; all phosphorothioate, sugars by position and methylation of C not given here)” was tested, and the “percent inhibition of CAT expression, pG1036 = non-splicing” value (pG1036 (wild-type CAT)) was 30 ± 4% and the “percent inhibition of CAT expression, pG1035 = splicing” value (pG1035 (SplicerCAT)) was 23 ± 15%.
